Source: ChEMBL document CHEMBL1127863, “New nonpeptide angiostensin II receptor antagonists. Synthesis, biological properties and structure-activity relationships of 3-substituted 2,6-dialkyl-4-(biphenyll)methylaminopyridine derivatives” (Bioorg Med Chem Lett, 1994)

What was measured:
[1] = target: Angiotensin II receptor (Cavia porcellus); test: Inhibition of [125I]AII binding to guinea pig adrenal membrane
Rattus norvegicus = test: Effective dose following intravenous administration to conscious rats for inhibition of AII-induced pressor response; assay type: functional

Row | IC50 [1] [nM] | Structure (SMILES) | ED50 (Rattus norvegicus) [mg/kg]
1 | 24.9 | CCc1cc(NCc2ccc(-c3ccccc3-c3nn[nH]n3)cc2)c(-c2ccc(C)cc2)c(CC)n1 | –
2 | – | CCc1cc(OCc2ccc(-c3ccccc3-c3nn[nH]n3)cc2)c2ccccc2n1 | 1
3 | 2.64 | CCc1cc(NCc2ccc(-c3ccccc3-c3nn[nH]n3)cc2)c(I)c(CC)n1 | 0.13
4 | 26.4 | CCc1cc(NCc2ccc(-c3ccccc3-c3nn[nH]n3)cc2)c(-c2ccc(C(F)(F)F)cc2)c(CC)n1 | –
5 | 3.48 | Cc1cc(NCc2ccc(-c3ccccc3-c3nn[nH]n3)cc2)c(I)c(C)n1 | 0.05
6 | 14 | CCc1cc(OCc2ccc(-c3ccccc3-c3nn[nH]n3)cc2)c(I)c(CC)n1 | 0.44
7 | 6.21 | CCc1cc(NCc2ccc(-c3ccccc3-c3nn[nH]n3)cc2)c(C(=O)OC)c(CC)n1 | –
8 | 8.03 | COC(=O)c1c(NCc2ccc(-c3ccccc3-c3nn[nH]n3)cc2)cc(C)nc1C | –
9 | – | CCc1cc(OCc2ccc(-c3ccccc3-c3nn[nH]n3)cc2)c2c(n1)CCCC2 | 0.39
10 | 3.83 | CCc1cc(NCc2ccc(-c3ccccc3-c3nn[nH]n3)cc2)c(Br)c(CC)n1 | 0.09
11 | – | CCCCc1nc(Cl)c(CO)n1Cc1ccc(-c2ccccc2-c2nnn[nH]2)cc1 [LOSARTAN] | 0.65
12 | 6.65 | Cc1cc(NCc2ccc(-c3ccccc3-c3nn[nH]n3)cc2)c(Cl)c(C)n1 | 0.03
13 | 7.58 | CCc1cc(NCc2ccc(-c3ccccc3-c3nn[nH]n3)cc2)c(Cl)c(CC)n1 | 0.06
